From article PMC6733653 (Insect biochemistry and molecular biology, 2019)
Counter-ions that a name gives are not always drawn.

Assays:
Assay in all cases: two-electrode voltage clamp, Xenopus oocytes, concentration-response
Assay type in all cases: cell-based
CquiOR5 = target: T1, CquiOR5 (Culex quinquefasciatus, UniProt A0A3G1T0A9)
T1 sequence (A0A3G1T0A9 1-393): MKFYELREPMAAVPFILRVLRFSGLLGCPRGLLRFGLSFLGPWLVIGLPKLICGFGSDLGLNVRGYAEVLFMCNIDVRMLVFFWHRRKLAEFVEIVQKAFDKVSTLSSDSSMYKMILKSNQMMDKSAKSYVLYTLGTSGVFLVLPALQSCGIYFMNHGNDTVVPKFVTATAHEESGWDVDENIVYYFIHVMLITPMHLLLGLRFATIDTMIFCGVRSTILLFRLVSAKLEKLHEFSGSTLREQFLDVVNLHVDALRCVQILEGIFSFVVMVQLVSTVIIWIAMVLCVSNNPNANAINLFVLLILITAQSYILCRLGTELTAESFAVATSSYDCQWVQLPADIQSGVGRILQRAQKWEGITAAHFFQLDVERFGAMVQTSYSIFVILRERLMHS

CquiOR4 [1] = target: T2, CquiOR4 (Culex quinquefasciatus, UniProt A0A3G1T0B0)
T2 sequence (A0A3G1T0B0 1-391): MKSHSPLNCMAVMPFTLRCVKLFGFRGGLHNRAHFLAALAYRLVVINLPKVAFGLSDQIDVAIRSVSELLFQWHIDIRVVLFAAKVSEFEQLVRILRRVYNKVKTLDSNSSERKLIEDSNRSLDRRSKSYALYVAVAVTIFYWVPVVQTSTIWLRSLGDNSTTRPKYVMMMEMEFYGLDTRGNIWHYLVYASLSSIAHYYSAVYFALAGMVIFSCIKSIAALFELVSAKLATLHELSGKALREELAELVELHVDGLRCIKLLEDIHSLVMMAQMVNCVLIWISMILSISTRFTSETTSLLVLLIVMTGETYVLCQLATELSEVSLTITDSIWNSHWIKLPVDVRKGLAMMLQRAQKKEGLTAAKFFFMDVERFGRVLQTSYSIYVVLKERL

AaegOR15 = target: T3, AaegOR15 (Aedes aegypti, UniProt A0A6B9QIR2)
T3 sequence (A0A6B9QIR2 1-390): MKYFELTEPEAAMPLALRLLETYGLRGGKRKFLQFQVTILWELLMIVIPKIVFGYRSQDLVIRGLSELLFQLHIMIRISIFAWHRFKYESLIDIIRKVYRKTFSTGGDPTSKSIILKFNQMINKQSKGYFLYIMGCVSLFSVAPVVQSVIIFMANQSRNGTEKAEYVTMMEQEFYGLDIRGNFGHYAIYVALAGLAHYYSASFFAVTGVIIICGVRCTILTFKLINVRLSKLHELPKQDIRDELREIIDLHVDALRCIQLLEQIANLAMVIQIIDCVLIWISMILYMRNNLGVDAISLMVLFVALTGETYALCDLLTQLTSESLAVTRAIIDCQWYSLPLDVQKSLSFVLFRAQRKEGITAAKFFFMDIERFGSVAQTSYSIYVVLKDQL
T3 sequence (Q178U6 1-478 partner): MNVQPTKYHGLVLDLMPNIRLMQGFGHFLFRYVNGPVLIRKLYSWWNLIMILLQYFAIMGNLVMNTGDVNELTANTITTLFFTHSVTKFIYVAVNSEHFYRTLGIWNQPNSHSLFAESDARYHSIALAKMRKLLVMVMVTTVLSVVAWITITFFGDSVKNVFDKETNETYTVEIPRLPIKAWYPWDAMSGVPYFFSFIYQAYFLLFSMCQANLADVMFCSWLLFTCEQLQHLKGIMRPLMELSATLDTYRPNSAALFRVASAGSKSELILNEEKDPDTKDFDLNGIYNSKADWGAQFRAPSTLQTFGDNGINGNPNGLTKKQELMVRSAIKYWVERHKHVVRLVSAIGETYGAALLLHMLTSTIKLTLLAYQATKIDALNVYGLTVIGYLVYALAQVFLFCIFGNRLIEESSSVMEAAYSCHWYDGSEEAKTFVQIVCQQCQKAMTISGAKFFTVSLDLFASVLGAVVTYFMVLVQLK

CquiOR4 [2] = target: T2, CquiOR4; remark: listed apart in the source

Structure (SMILES)	two-electrode voltage clamp, Xenopus oocytes, concentration-response (AaegOR15)	further results
C=CC(C)(O)CCC=C(C)C (racemic) [linalool]		EC50 (CquiOR5): 574 nM
OCCc1ccccc1 [2-phenylethanol]		EC50 (CquiOR4 [1]): 28 nM
CC(=O)c1ccccc1 [acetophenone]	AaegOR15/AaegOrco-expressing oocytes generated dose-dependent, robust currents when challenged with phenethyl propionate, phenethyl formate, and acetophenone	
OCc1ccccc1 [benzyl alcohol]	Concentration-dependent responses of AaegOR15·AaegOrco-expressing oocytes to four major odorants	
O=COCCc1ccccc1 [phenethyl formate]	AaegOR15/AaegOrco-expressing oocytes generated dose-dependent, robust currents when challenged with phenethyl propionate, phenethyl formate, and acetophenone	
CCC(=O)OCCc1ccccc1 [phenethyl propionate]	AaegOR15/AaegOrco-expressing oocytes generated dose-dependent, robust currents when challenged with phenethyl propionate, phenethyl formate, and acetophenone	two-electrode voltage clamp, Xenopus oocytes, concentration-response (CquiOR4 [2]): 2-Phenylethanol, phenethyl formate, and phenethyl propionate were the best ligands for CquiOR4
